Patent US6685617B1, “Inhibitors of α4β1 mediated cell adhesion” (Pharmacia & Upjohn Company, priority 1998, dated 2004)
pIC50: −log10 of the molar value. Structures can show the parent of a compound that is named as a salt.

Columns and labels:
[1] = target: T1, α4β1 integrin (Jurkat cell adhesion to immobilized CS-1 derived peptide CLHPGEILDVPST) (Homo sapiens, UniProt P05556+P13612); assay: Jurkat-CS-1 assay; type: cell-based; conditions: Jurkat cells on CS-1 peptide coated plates; read-out: JK/CS-1 (Jurkat CS-1 Assay IC50 value range)
T1 construct: 100 μl of Jurkat cells (2.5×10^6 cells/ml) in DMEM plus BSA; host or cells: Jurkat T-cell line
T1 sequence (P13612 34-1032): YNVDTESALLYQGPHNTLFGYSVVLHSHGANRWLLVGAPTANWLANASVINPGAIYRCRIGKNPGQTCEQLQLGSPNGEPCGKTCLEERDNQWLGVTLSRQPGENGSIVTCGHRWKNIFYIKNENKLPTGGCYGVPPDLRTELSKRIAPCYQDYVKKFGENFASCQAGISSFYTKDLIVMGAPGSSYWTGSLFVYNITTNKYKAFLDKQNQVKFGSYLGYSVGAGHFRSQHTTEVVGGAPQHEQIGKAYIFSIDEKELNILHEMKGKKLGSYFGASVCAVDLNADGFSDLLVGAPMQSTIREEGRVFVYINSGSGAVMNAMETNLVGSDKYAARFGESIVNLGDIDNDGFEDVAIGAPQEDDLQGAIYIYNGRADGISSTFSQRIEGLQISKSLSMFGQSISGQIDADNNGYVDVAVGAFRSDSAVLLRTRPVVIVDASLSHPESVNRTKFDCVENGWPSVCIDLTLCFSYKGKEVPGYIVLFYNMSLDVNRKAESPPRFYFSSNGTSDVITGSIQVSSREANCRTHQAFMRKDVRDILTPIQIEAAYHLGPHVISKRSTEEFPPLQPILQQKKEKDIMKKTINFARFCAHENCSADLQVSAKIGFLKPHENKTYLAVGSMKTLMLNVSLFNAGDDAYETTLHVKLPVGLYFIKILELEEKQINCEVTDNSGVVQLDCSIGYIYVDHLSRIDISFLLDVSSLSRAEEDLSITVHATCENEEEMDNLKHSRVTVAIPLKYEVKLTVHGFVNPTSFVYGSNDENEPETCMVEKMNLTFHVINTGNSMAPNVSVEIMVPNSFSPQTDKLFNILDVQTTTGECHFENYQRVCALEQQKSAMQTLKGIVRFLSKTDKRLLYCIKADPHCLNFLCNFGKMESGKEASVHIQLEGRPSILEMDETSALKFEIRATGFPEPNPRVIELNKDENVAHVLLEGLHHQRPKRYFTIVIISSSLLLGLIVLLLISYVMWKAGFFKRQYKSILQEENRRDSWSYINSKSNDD
T1 sequence (P05556 21-798): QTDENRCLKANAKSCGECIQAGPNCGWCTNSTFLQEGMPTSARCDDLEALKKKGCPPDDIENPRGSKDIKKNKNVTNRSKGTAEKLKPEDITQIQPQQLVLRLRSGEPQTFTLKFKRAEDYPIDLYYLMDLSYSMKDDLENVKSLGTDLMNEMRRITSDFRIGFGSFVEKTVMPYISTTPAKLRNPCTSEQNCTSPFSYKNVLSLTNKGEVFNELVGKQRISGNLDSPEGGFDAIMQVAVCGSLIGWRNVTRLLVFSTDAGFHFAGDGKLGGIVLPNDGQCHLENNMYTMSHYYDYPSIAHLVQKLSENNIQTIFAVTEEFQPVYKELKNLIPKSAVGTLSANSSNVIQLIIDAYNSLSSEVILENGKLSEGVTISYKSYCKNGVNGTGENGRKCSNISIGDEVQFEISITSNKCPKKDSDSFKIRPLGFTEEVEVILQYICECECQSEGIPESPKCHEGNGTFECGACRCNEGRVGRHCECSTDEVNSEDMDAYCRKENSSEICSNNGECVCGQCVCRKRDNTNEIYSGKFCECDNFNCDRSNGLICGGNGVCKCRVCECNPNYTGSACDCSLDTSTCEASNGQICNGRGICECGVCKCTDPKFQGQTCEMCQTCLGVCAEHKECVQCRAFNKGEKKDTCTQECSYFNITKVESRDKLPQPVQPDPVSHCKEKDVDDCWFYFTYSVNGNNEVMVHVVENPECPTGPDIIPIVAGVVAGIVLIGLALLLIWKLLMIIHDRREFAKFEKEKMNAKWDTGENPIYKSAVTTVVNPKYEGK
Method in brief: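 CS-1 peptide was SPDP-crosslinked onto HSA-coated plates and blocked with BSA. Jurkat cells (2.5×10^6 cells/ml) in DMEM/BSA were mixed with compound, generally at 100, 20, 5 and 1.25 μM, and allowed to adhere for 1 hr at 37° C. Bound cells were fixed, stained with toluidine blue and quantified by OD590.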

[2] = target: T2, α4β1 integrin (Jurkat T-cell adhesion to IL-1 stimulated endothelial cell monolayers) (Homo sapiens, UniProt P05556+P13612); assay: Jurkat-endothelial cell adhesion assay (Jurkat EC); type: cell-based; conditions: Jurkat cells on IL-1 stimulated human umbilical vein endothelial cells; read-out: JK/EC (Jurkat EC Assay IC50 value range)
T2 construct: a T-cell line, Jurkat, known to express the α4β1 integrin; host or cells: Jurkat T-cell line
T2 sequence (P13612 34-1032): as the sequence (P13612 34-1032) above
T2 sequence (P05556 21-798): as the sequence (P05556 21-798) above
Method in brief: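 BCECF-AM-labelled Jurkat cells were mixed with compound, generally 100, 20, 5 and 1.25 μM, and added to HUVEC monolayers (passage ≤6) pre-stimulated 4 hr at 37° C with 0.1 ng/ml IL-1. After 5 min on ice and 20 min at 37° C, washed wells were read by fluorescence as % adhesion relative to no compound.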

| Compound | pIC50 [1] | pIC50 [2] |
| --- | --- | --- |
| CCOC(=O)N1[C@@H](C(=O)N[C@@H](Cc2ccc(OCc3c(Cl)cccc3Cl)cc2)C(=O)O)CSC12CCCC2 (relative stereo) [Example 161, [S-(R*,R*)]-3-[[[1Carboxy-2-[4-[(2,6-dichlorophenyl)methoxy]phenylethyl]amino]carbonyl]-1-thia-4-azapiro[4.4]nonane-4-carboxylic Acid 4-Ethyl Ester] | ≤ 6.12 | ≤ 6.00 |
| COC(=O)[C@H](Cc1ccc(OCc2c(Cl)cccc2Cl)cc1)NC(=O)[C@H]1CSCN1C(=O)OCCN1CCCCC1 (relative stereo) [Example 5, [S-(R*,R*)]-4-[[[1-[4-[(2,6-Dichlorophenyl)methoxy]phenyl)methyl]-2-methoxy-2-oxoethyl]amino]carbonyl]-3-thiazolidinecarboxylic Acid 3-[2-(1-piperidinyl)ethyl]ester] | 6.12 to 7.30 | 6.00 to 6.60 |
| CC(C)(C)NC(=O)N1CSC[C@@H]1C(=O)N[C@@H](Cc1ccc(NC(=O)c2c(Cl)cccc2Cl)cc1)C(=O)O [Example 52, 4-[(2,6-Dichlorobenzoyl)amino]-N-[[(4S)-3-[[(1,1-dimethylethyl)amino]carbonyl]-4-thiazolidinyl]carbonyl]-L-phenylalanine] | 6.12 to 7.30 | ≥ 6.60 |
| O=C(Nc1ccc(C[C@H](NC(=O)[C@@H]2CCCCN2C(=O)C2CCCO2)C(=O)O)cc1)c1c(Cl)cccc1Cl (some centres unmarked) [Example 192] | ≥ 7.30 | ≥ 6.60 |
| O=C(O)c1ccc(NC(=O)N2CCC[C@H]2C(=O)N[C@@H](Cc2ccc(NC(=O)c3c(Cl)cccc3Cl)cc2)C(=O)O)cc1 [Example 238] | 6.12 to 7.30 | ≤ 6.00 |
| COC(=O)[C@H](Cc1ccc(NC(=O)c2c(Cl)cccc2Cl)cc1)NC(=O)[C@@H]1CSCCN1C(=O)OC(C)(C)C [Example 96] | ≤ 6.12 | ≤ 6.00 |
| O=C(O)c1cc(C(=O)N2CCCC[C@H]2C(=O)N[C@@H](Cc2ccc(NC(=O)c3c(Cl)cccc3Cl)cc2)C(=O)O)n[nH]1 [Example 189] | 6.12 to 7.30 | ≤ 6.00 |
| COCCC(=O)N1CCC[C@H]1C(=O)N[C@@H](Cc1ccc(NC(=O)c2c(Cl)cccc2Cl)cc1)C(=O)O [Example 229] | 6.12 to 7.30 | ≤ 6.00 |
| CCN(CC)C(=O)N1CSC[C@@H]1C(=O)N[C@@H](Cc1ccc(NC(=O)c2c(Cl)cccc2Cl)cc1)C(=O)OC [Example 7, 4-[(2,6-Dichlorobenzoyl)amino]-N-[[(4S)-3-[(diethylamino)carbonyl]-4-thiazolidinyl]carbonyl]-L-phenylalanine Methyl Ester] | 6.12 to 7.30 | ≤ 6.00 |
| O=C(O)CCC1(CCC(=O)N[C@@H](Cc2ccc(NC(=O)c3c(Cl)cccc3Cl)cc2)C(=O)O)CCC(=O)N1 (some centres unmarked) [Example 115] | 6.12 to 7.30 | ≤ 6.00 |
| COC(=O)[C@H](Cc1ccc(NC(=O)c2c(Cl)cccc2Cl)cc1)NC(=O)[C@H]1CSCN1C(=O)CCCC(=O)O (relative stereo) [Example 150, [S-(R*,R*)]-4-[[[1-[[4-[(2,6-Dichlorobenzoyl)amino]phenyl]methyl]-2-methoxy-2-oxoethyl]amino]carbonyl]-δ-oxo-3-thiazoidinepentanoic Acid] | 6.12 to 7.30 | 6.00 to 6.60 |
| CCOC(=O)N1CSC(C)(C)[C@@H]1C(=O)N[C@@H](Cc1ccc(NC(=O)c2c(Cl)cccc2Cl)cc1)C(=O)O (relative stereo) [Example 31, [S-(R*,R*)]-4-[[[1-Carboxy-2-[4-[(2,6-dichlorobenzoyl)amino]phenyl]ethyl]amino]carbonyl]-5,5-dimethyl-3-thiazolidinecarboxylic Acid 3-Ethyl Ester] | ≥ 7.30 | ≥ 6.60 |
| CC(C)(CC(=O)O)CC(=O)N1CCC[C@H]1C(=O)N[C@@H](Cc1ccc(NC(=O)c2c(Cl)cccc2Cl)cc1)C(=O)O [Example 226] | 6.12 to 7.30 | ≤ 6.00 |
| COc1ccc(C(=O)N2CCCC(C(=O)N[C@@H](Cc3ccc(NC(=O)c4c(Cl)cccc4Cl)cc3)C(=O)O)C2)cc1OC (some centres unmarked) [Example 203] | 6.12 to 7.30 | ≤ 6.00 |
| CC(C)(C)OC(=O)N1CSC[C@@H]1C(=O)N[C@@H](Cc1ccc(NC(=O)c2c(Cl)cccc2Cl)cc1)C(=O)O (relative stereo) [Example 10, [S-(R*,R*)]-4-[[[1-Carboxy-2-[4-[(2,6-dichlorobenzoyl)amino]phenyl]ethyl]amino]carbonyl]-3-thiazolidinecarboxylic Acid 3-(1,1-Dimethylethyl)ester] | ≥ 7.30 | ≥ 6.60 |
| C[C@H](c1ccccc1)N1[C@H](C(=O)O)C[C@H]1C(=O)N[C@@H](Cc1ccc(NC(=O)c2c(Cl)cccc2Cl)cc1)C(=O)O [Example 137, [2S-[1(S*),2α,4β(R*)]]-4-[[[1-Carboxy-2-[4-[(2,6-dichlorobenzoyl)amino]phenyl]ethyl]-amino]carbonyl]-1-(1-phenylethyl)-2-azetidinecarboxylic Acid] | 6.12 to 7.30 | 6.00 to 6.60 |
| CC(C)(C)OC(=O)N1[C@H](C(=O)N[C@@H](Cc2ccc(NC(=O)c3c(Cl)cccc3Cl)cc2)C(=O)O)CSC1(C)C (relative stereo) [Example 73, [R-(R*,S*)]-4-[[[Carboxy-2-[4-[(2,6-dichlorobenzoyl)amino]phenyl]ethyl]amino]carbonyl]-2,2-dimethyl-3-thiazolidinecarboxylic Acid 3-(1,1-Dimethylethyl)ester] | 6.12 to 7.30 | ≤ 6.00 |
| CN(CCc1ccccn1)C(=O)N1CSC[C@@H]1C(=O)N[C@@H](Cc1ccc(NC(=O)c2c(Cl)cccc2Cl)cc1)C(=O)O [Example 55, 4-[(2,6-Dichlorobenzoyl)amino]-N-[[(4S)-3-[[methyl[2-(2-pyridinyl)ethyl]amino]carbonyl]-4-thiazolidinyl]carbonyl]-L-phenylalanine] | ≥ 7.30 | ≥ 6.60 |
| O=C(Nc1ccc(C[C@H](NC(=O)[C@@H]2CCCCN2C(=O)c2cc(O)c3ccccc3n2)C(=O)O)cc1)c1c(Cl)cccc1Cl [Example 188] | 6.12 to 7.30 | ≤ 6.00 |
| O=C(O)c1ccccc1C(=O)N1CCC[C@H]1C(=O)N[C@@H](Cc1ccc(NC(=O)c2c(Cl)cccc2Cl)cc1)C(=O)O [Example 234] | 6.12 to 7.30 | ≤ 6.00 |
| CS(=O)(=O)N1CSC[C@@H]1C(=O)N[C@@H](Cc1ccc(NC(=O)c2c(Cl)cccc2Cl)cc1)C(=O)O [Example 3, 4-[(2,6-Dichlorobenzoyl)amino]-N-[[(4S)-3-(methylsulfonyl)-4-thiazolidinyl]carbonyl]-L-phenylalanine] | ≥ 7.30 | ≥ 6.60 |

Continued, values first:

| pIC50 [1] | pIC50 [2] | Compound |
| --- | --- | --- |
| 6.12 to 7.30 | ≤ 6.00 | O=C(CCC1(C(=O)O)CCC(=O)N1)N[C@@H](Cc1ccc(OCc2c(Cl)cccc2Cl)cc1)C(=O)O (stereo partly drawn) [Example 117, 2-[3-[[(1S)-1-Carboxy-2-[4-[(2,6-dichlorophenyl)methoxy]phenyl]ethyl]amino]-3-oxo-propyl]-5-oxoproline] |
| ≤ 6.12 | ≤ 6.00 | O=C(Nc1ccc(C[C@H](NC(=O)C2CNC2)C(=O)O)cc1)c1c(Cl)cccc1Cl [Example 147, N-[[3-Azetidinyl]carbonyl]-4-[(2,6-dichlorobenzoyl)amino]-L-phenylalanine, Trifluoroacetic Acid Salt] |
| ≤ 6.12 | ≤ 6.00 | COC(=O)[C@H](Cc1ccc(OCc2c(Cl)cccc2Cl)cc1)NC(=O)[C@H]1CSCN1C(=O)OC(C)(C)C (relative stereo) [Example 32, [S-(R*,R*)]-4-[[[1-[4-[(2,6-Dichlorophenyl)methoxy]phenyl]methyl]-2-methoxy-2-oxoethyl]amino]carbonyl]-3-thiazolidinecarboxylic Acid 3-(1,1-Dimethylethyl)ester] |
| 6.12 to 7.30 | ≤ 6.00 | O=C(O)CC1(CC(=O)N2CCC[C@H]2C(=O)N[C@@H](Cc2ccc(NC(=O)c3c(Cl)cccc3Cl)cc2)C(=O)O)CCCC1 [Example 225] |
| ≥ 7.30 | ≤ 6.00 | O=C(Nc1ccc(C[C@H](NC(=O)[C@@H]2CCCCN2C(=O)C2CCCC(C(=O)O)C2)C(=O)O)cc1)c1c(Cl)cccc1Cl (some centres unmarked) [Example 178] |
| ≤ 6.12 | ≤ 6.00 | CCOC(=O)N1[C@@H](C(=O)N[C@@H](Cc2ccc(OCc3c(Cl)cccc3Cl)cc2)C(=O)O)CSC12CCN(C)CC2 (relative stereo) [Example 155, [S-(R*,R*)]-3-[[[1-Carboxy-2-[4-[(2,6-dichlorophenyl)methoxy]phenyl]ethyl]amino]carbonyl]-8-methyl-1-thia-4,8-diazaspiro[4.5]decane-4-carboxylic Acid 4-Ethyl Ester] |
| ≥ 7.30 | 6.00 to 6.60 | CC(=O)N1CSC[C@H]1C(=O)N[C@@H](Cc1ccc(NC(=O)c2c(Cl)cccc2Cl)cc1)C(=O)O [Example 70, N-[[(4R)-3-Acetyl-4-thiazolidinyl]carbonyl]-4[(2,6-dichlorobenzoyl)amino]-L-phenylalanine] |
| 6.12 to 7.30 | ≤ 6.00 | CC(=O)CCC(=O)N1CCC(C(=O)N[C@@H](Cc2ccc(NC(=O)c3c(Cl)cccc3Cl)cc2)C(=O)O)CC1 [Example 216] |
| 6.12 to 7.30 | ≥ 6.60 | O=C(Nc1ccc(C[C@H](NC(=O)[C@@H]2CSCN2C(=O)C2CCCO2)C(=O)O)cc1)c1c(Cl)cccc1Cl (some centres unmarked) [Example 245] |
| 6.12 to 7.30 | 6.00 to 6.60 | O=C(O)/C=C/C(=O)N1CSC[C@@H]1C(=O)N[C@@H](Cc1ccc(NC(=O)c2c(Cl)cccc2Cl)cc1)C(=O)O [Example 261] |
